For experiment [1], the system named is Saccharomyces cerevisiae (BY4741). Description: EA MicroPlate nutrient stimulation test without methionine (iodo-nitro-tetrazolium violet reduction). Type of experiment: cell-based. The conditions noted are these: 30° C., 2 days, visual. The protocol:
In this Example, the response of a yeast to various compounds was tested. The yeast used in these experiments was Saccharomyces cerevisiae (BY4741, obtained from Dr. Mark Johnston, Washington University, St. Louis, Mo.). The genotype of this strain was indicated as being Mat a (i.e., mating type “a”), ura-, his-, leu-, and met-. In these experiments, the ability of this strain to grow in a culture medium without methionine was investigated. Methionine interferes with the ability to test this organism for its utilization of other potential sulfur sources (i.e., if methionine is added to a culture medium the organism preferentially uses it as a sulfur source). The yeast was grown for 48 hours at 30° C. on R2A agar medium (Acumedia). Cells were removed from the agar surface with a sterile cotton swab and suspended at a cell density of 65% transmittance (as read using a BiologTM turbidimeter) in an inoculating fluid containing 50 mM glucose, 0.15 mM uracil, 0.15 mM L-histidine, 0.15 mM L-leucine, 0.15 mM MgCl2, 1.0 mM CaCl2, 2.0 mM NaCl, 1.0 mM KCl, 3.0 mM NH4Cl, 1.0 mM NaH2PO4, 0.1 mM Na2SO4, 0.01% iodo-nitro-tetrazolium violet, 0.01% phytagel (gellan gum), 0.03% pluronic F-68; the pH was adjusted to 6.0. The cell suspension (100 μl/well) was then used to inoculate a BiologTM EA MicroPlateTM, which tests the ability of a cell to be stimulated by a set of 95 different nutrients. The nutrients included within the microarray were: […] One well (A-1) contains no nutrients and is used as a reference (i.e., control) well. After inoculation, the microarray was incubated at 30° C. for 2 days and visually observed.

The subject of a further experiment is E. coli MG1655. The experiment can be described thus: phenotype microarray (PM) comparative profiling of antimicrobials, S-O-R scoring, distance matrix and dendrogram. The format is cell-based. The conditions noted are these: 7 PMs; for clustering in dendrogram of PM S-O-R response (FIG. 4): 1x level of each antimicrobial (lowest concentration giving detectable inhibition of respiration), 665 phenotypes, 48 hours; for PM response pattern (fingerprint) of cells exposed to the antimicrobial: partially inhibitory concentrations (1x, 2x). The text has this:
In this Example, experiments are described in which the feasibility of using PMs for analyzing the metabolic effects of antimicrobial compounds and their mechanisms of action were investigated. Specifically, the experiments were designed to determine whether compounds that act via interaction with specific bacterial proteins (“target-specific”) can be distinguished from those acting via non-specific mechanisms, solely on the basis of differences in signature metabolic profiles. In addition, the experiments were designed to determine whether different interactors of the same pathway produce a similar signature profile, as well as whether interactors of different pathways produce distinctly different profiles.
Twenty chemicals were selected for inclusion in these experiments. Fifteen of these, listed below in Table 3 as “single target antimicrobials” are thought to have relatively specific modes of action, whereas five antimicrobials, listed as “multiple target antimicrobials” are thought to have non-specific modes of action.
An initial set of experiments was performed to select the concentrations of each chemical as it was desirable to use a partially inhibitory concentration. A completely inhibitory or sub-inhibitory concentration would not provide any information. Partial inhibitory levels were determined using the criterion of decreased formation of purple color due to inhibition of tetrazolium violet reduction (i.e., respiration). Each compound was tested at two concentrations giving partial inhibition of respiration. The lower concentration, referred to as “1x,” was the lowest concentration giving detectable inhibition of respiration. The higher concentration, referred to as “2x,” was twice the 1x concentration. […] Thus, only 1x and 2x concentrations were used.
In these experiments, E. coli MG1655 was tested against 20 antimicrobials at two concentrations using 7 PMs each, for a total of 280 PMs. […] Since in these experiments each PM contains 95 phenotypes, the total number of phenotypes analyzed here was 26,600. Each PM was monitored kinetically every 15 minutes using a specialized instrument described is U.S. patent application Ser. No. 09/277,353 (herein incorporated by reference) for an incubation duration of 48 hours. Thus, the total number of data points for the experiments was 5,107,200.
The results of the data collected for a run is a kinetic phenotype of the cell exposed to an antimicrobial overlaid and compared against the phenotype of the cell without exposure to the antimicrobial. When the two kinetic tracings of tetrazolium reduction (i.e., cell respiration) overlap, there is no difference in the response to that phenotype (indicated as “O”). When the control tracing exceeds the antimicrobial tracing, the organism is scored as “more sensitive” or “S.” When the antimicrobial tracing exceeds the control tracing, the organism is scored as “more resistant,” or “R.” Based on visual examination of the PMs after incubation, the threshold values for judging S and R results were determined. The software then automatically calculated the areas under the differential tracings and applied threshold values to score all 26,600 phenotypes as S, O, or R.
From the S—O—R data, a distance matrix was generated. The S—O—R response (a string of 665 values) for one antimicrobial was compared to the response for another antimicrobial, and the differences summed up. A difference of O to S or of O to R was assigned a value of 1, and a difference of S to R was assigned a value of 2. The string of 665 differences was then summed up.

In a further experiment the test system is E. coli (MG1655). The experiment can be described thus: BAC combination (synergy/antagonism) testing in ES1, ES2 and ES3 MicroPlate sensitivity panels, tetrazolium violet. The format is cell-based. As for the experimental part:
In this Example, the susceptibility of E. coli (MG1655) was tested in the presence of vancomycin (10 μg/ml) or sulfamethoxazole (235 μg/ml) in microarrays containing various additional compounds. The microarrays were present in three Biolog™ sensitivity test panels, referred to as ES1, ES2 and ES3 MicroPlates™. The organisms were added to a sterile aqueous suspension containing 0.40% NaCl, 0.03% pluronic F68, 0.01% phytagel, and 0.01% tetrazolium violet, to a cell density of 85% transmittance (as measured using a BiologTm turbidimeter). The BAC to be tested was added to the suspension just prior to inoculating the organisms (100 μl/well) into the wells of the microarrays. The wells of these ES MicroPlates™ contained a basal broth medium consisting of tryptone (2 g/L), yeast extract (1 g/L), and NaCl (1 g/L). […]

Experiment [2] concerns vancomycin-intermediate S. aureus isolates (VISA). The conditions noted are these: VISA isolates identified since 1996 in Europe, Asia and the U.S.; cited from earlier work.

Results on 16 compounds are retold here after patent US6436631B1, “Comparative phenotype analysis for assessment of biologically active compounds such as antimicrobials” (priority 2000, dated 2002).

Where a SMILES comes first, the peptide text is derived from it.

For `CSCC[C@H](N)C(=O)O` [L-methionine], the “stimulation of growth/respiration (pink color) in medium without methionine” value in experiment [1] (L-methionine well (25 μM)) is “increased pink color”.

For `CC1(C)S[C@@H]2[C@H](NC(=O)[C@H](N)c3ccccc3)C(=O)N2[C@H]1C(=O)O` [ampicillin], the “clustering in dendrogram of PM S-O-R response (FIG. 4)” value (“clustering in dendrogram” for short) in the experiment on E. coli MG1655 is given as “cluster”.

Turning to `CC[C@H](C)[C@H](N)C1=N[C@H](C(=O)N[C@@H](CC(C)C)C(=O)N[C@H](CCC(=O)O)C(=O)N[C@H](C(=O)N[C@H]2CCCCNC(=O)[C@H](CC(N)=O)NC(=O)[C@@H](CC(=O)O)NC(=O)[C@H](Cc3cnc[nH]3)NC(=O)[C@@H](Cc3ccccc3)NC(=O)[C@H]([C@@H](C)CC)NC(=O)[C@@H](CCCN)NC2=O)[C@@H](C)CC)CS1` [bacitracin] (HELM PEPTIDE1{[CC[C@H](C)[C@H](N)C1=N[C@H](C(=O)[*:2])CS1].L.[dE].I.K.[NCCC[C@@H](N[*:1])C(=O)[*:2]].I.[dF].H.[dD].N}$PEPTIDE1,PEPTIDE1,5:R3-11:R2$$$V2.0), the “clustering in dendrogram” value with E. coli MG1655 was “cluster”.

For the compound `CC(=O)OCC1=C(C(=O)O)N2C(=O)[C@@H](NC(=O)Cc3cccs3)[C@H]2SC1` [cephalothin], in the experiment with E. coli MG1655, the “clustering in dendrogram” value was “cluster”. For the same compound, the “change of sensitivity of E. coli strain to panel compound” value (shortened to “change of sensitivity of E. coli strain”) is recorded as “increased sensitivity” with E. coli (MG1655) (in the presence of 10 μg/ml vancomycin, cephalothin at 10 and 20 μg/ml); “increased sensitivity” with E. coli (MG1655) (in the presence of 235 μg/ml sulfamethoxazole, cephalothin at 5.0, 10 and 20 μg/ml).

As for `C/C=C/C/C=C/CCC(=O)[C@H]1O[C@H]1C(N)=O` [cerulenin], in the experiment on E. coli MG1655, the “PM response pattern (fingerprint) of cells exposed to the antimicrobial” value (“PM response pattern (fingerprint)” for short) is reported as “more closely resembled the multiple target antimicrobials”.

Take `O=C(N[C@H](CO)[C@H](O)c1ccc([N+](=O)[O-])cc1)C(Cl)Cl` [chloramphenicol]: the “clustering in dendrogram” value with E. coli MG1655 is listed as “cluster”.

For the compound `N[C@@H](CCC(=O)N[C@@H](CS)C(=O)NCC(=O)O)C(=O)O` [glutathione], the “stimulation of growth/respiration (pink color) in medium without methionine” value in experiment [1] (glutathione well (reduced form; 100 μM)) is reported as “increased pink color”.

With `CCn1cc(C(=O)O)c(=O)c2ccc(C)nc21` [nalidixic acid], the “clustering in dendrogram” value with E. coli MG1655 is “did not cluster with the other two DNA gyrase inhibiting chemicals”. Moreover, the “change of sensitivity of E. coli strain” value in the experiment with E. coli (MG1655) (in the presence of 10 μg/ml vancomycin, nalidixic acid at 1.0, 2.0 and 4.0 μg/ml) is given as “increased sensitivity”.

For `CCn1cc(C(=O)O)c(=O)c2cc3c(cc21)OCO3` [oxolinic acid], in the experiment with E. coli MG1655, the “clustering in dendrogram” value was “clustered”.

In the case of `C[C@@H]1O[C@@H]1P(=O)(O)O` [phosphomycin], the “clustering in dendrogram” value with E. coli MG1655 is recorded as “cluster”.

`Cc1ncc(CO)c(CO)c1O` [pyridoxine]: the “stimulation of growth/respiration (pink color) in medium without methionine” value in experiment [1] (pyridoxine well (0.25 μM)) was “increased pink color”.

Take `[H]/N=C(/N)N[C@H]1[C@H](O)[C@@H](O)[C@H](O[C@@H]2O[C@@H](C)[C@](O)(C=O)[C@H]2O[C@@H]2O[C@@H](CO)[C@H](O)[C@@H](O)[C@@H]2NC)[C@@H](N/C(N)=N\[H])[C@@H]1O` [streptomycin]: the “clustering in dendrogram” value in the experiment with E. coli MG1655 is given as “cluster”.

In the case of `Nc1ccc(S(=O)(=O)Nc2nccs2)cc1` [sulfathiazole], the “PM response pattern (fingerprint)” value in the experiment on E. coli MG1655 is listed as “more closely resembled the multiple target antimicrobials”.

As to `CN[C@H](CC(C)C)C(=O)N[C@H]1C(=O)N[C@@H](CC(N)=O)C(=O)N[C@H]2C(=O)N[C@H]3C(=O)N[C@H](C(=O)N[C@H](C(=O)O)c4cc(O)cc(O)c4-c4cc3ccc4O)[C@H](O)c3ccc(c(Cl)c3)Oc3cc2cc(c3O[C@@H]2O[C@H](CO)[C@@H](O)[C@H](O)[C@H]2O[C@H]2C[C@](C)(N)[C@H](O)[C@H](C)O2)Oc2ccc(cc2Cl)[C@H]1O` [vancomycin], the “vancomycin minimum inhibitory concentration [MIC]” value in experiment [2] is 8 to 16 µg/mL. In addition, the “change of sensitivity of E. coli strain” value with E. coli (MG1655) (in the presence of 10 μg/ml vancomycin, vancomycin wells at 10, 20, 40 and 80 μg/ml) is given as “transient increased sensitivity”.

Regarding coumermycin, the “clustering in dendrogram” value with E. coli MG1655 is given as “clustered”.

polymyxin B: in the experiment on E. coli MG1655, the “PM response pattern (fingerprint)” value is given as “more closely resembled the multiple target antimicrobials”.
